In patent publication US9598412B2, “Spiroindoline compounds for use as anthelminthics” (Intervet, Inc., priority 2010, dated 2017) one finds inhibition in vivo data, which are given here for nine molecules.

This experiment has as its system Haemonchus contortus. Description: Efficacy against Haemonchus contortus in jirds. The class given is in vivo. The note with it: 72 h, jirds (Meriones unguiculatus), necropsy three days after treatment, read-out: reduction of the Haemonchus contortus count (mean larvae count in stomach vs untreated control group). How it is done: Compounds according to this invention (numbers refer to the compound number in Table 1) were tested in vivo using Haemonchus contortus in jirds (Meriones unguiculatus). The jirds were orally infected with approximately 750-3.000 third-stage larvae of Haemonchus contortus. Ten days after infection, the jirds in the treatment groups were treated once either orally or subcutaneously with compounds at a dose of 10 mg or 50 mg per kg bodyweight. Three days after treatment, the jirds were necropsied, and the larvae burden in the stomach was determined. During the study no side-effects in jirds were observed. The efficacy was defined as the reduction of the mean larvae count in the infected jirds of the treatment group in comparison to the infected jirds in an untreated control group (negative control).

[1] abbreviates: sc, treated once subcutaneously at 50 mg/kg bw ten days after infection.
The mark [2] stands for this setting: po, treated once orally at 10 mg/kg ten days after infection.
[3] abbreviates: po, treated once orally at 50 mg/kg bw ten days after infection.

Like-named read-outs stand apart in the source and are kept apart here. Bounds are passed on as bounds.

As for `O=C(c1ccnc(Cl)c1)N1CC2(CCN(C/C=C/c3ccc(Cl)c(Cl)c3)CC2)c2cc(Cl)ccc21` [Compound 27], the inhibition in vivo at 50 mg/kg under setting [1] is not below 50%.
As to `O=C(c1ccnc(Cl)c1)N1CC2(CCN(C/C=C/c3ccc(F)cc3F)CC2)c2c1ccc(Cl)c2Cl` [Compound 20], the inhibition in vivo at 50 mg/kg under setting [1] was not below 50%.
Still for that read-out and setting: the result for `O=C(c1ccnc(Cl)c1)N1CC2(CCN(C/C=C/c3cccc(Cl)c3Cl)CC2)c2cc(Cl)ccc21` [Compound 25, [5-chloro-1′-[(E)-3-(2,3-dichlorophenyl)allyl]spiro[indoline-3,4′-piperidine]-1-yl]-(2-chloro-4-pyridyl)methanone] reads not below 50%.
Take `Cc1ccc2c(c1)C1(CCN(C/C=C/c3ccc(Cl)cc3F)CC1)CN2C(=O)c1ccnc(Cl)c1` [Compound 87]: the inhibition in vivo at 10 mg/kg under setting [2] was not below 50%.
For `O=C(c1ccnc(Cl)c1)N1CC2(CCN(C/C=C/c3ccc(F)cc3F)CC2)c2c(Cl)cc(Cl)cc21` [Compound 19], the inhibition in vivo at 50 mg/kg under setting [3] was not below 50%.
Regarding `O=C(c1ccnc(Cl)c1)N1CC2(CCN(C/C=C/c3ccc(F)cc3F)CC2)c2cc(C(F)(F)F)ccc21` [Compound 12], the inhibition in vivo at 50 mg/kg under setting [3] was not below 50%.
For `O=C(c1ccnc(Cl)c1)N1CC2(CCN(C/C=C/c3ccc(Cl)c(Cl)c3)CC2)c2cc(SC(F)(F)F)ccc21` [Compound 77], the inhibition in vivo at 10 mg/kg under setting [2] is not below 50%.
As for `Cc1ccc2c(c1)C1(CCN(C/C=C/c3ccc(Cl)c(Cl)c3)CC1)CN2C(=O)c1ccnc(Cl)c1` [Compound 71], the inhibition in vivo at 10 mg/kg (sc, treated once subcutaneously at 10 mg/kg ten days after infection) was not below 50%.
On to `O=C(c1ccnc(Cl)c1)N1CC2(CCN(C/C=C/c3ccc(Cl)cc3)CC2)c2cc(C(F)(F)F)ccc21` [Compound 42], for which, under setting [2], the inhibition in vivo at 10 mg/kg is not below 50%.
